Test results: patent US9044428B2, “Neuritogenic peptides” (Neoloch ApS, priority 2005, dated 2015)
Peptide text beside a SMILES is read from it.

Experiments:
[1] = Hematocrit in rats after the brain lesion; assay type: in vivo; settings: rat after brain lesion, peptide 1 mg/100 g s.c., p>0.02
Procedure: (§1) Male rats (wistar) (tree groups, 5 rats/group) were injected s.c with different Epo peptides (each group individually with Epo 2, Epo 3 or Epo 4) three times according to the scheme: • 1. the day before the lesion: a single injection of a peptide per animal (1 mg/100 g animal weight); • 2. the 1st day after the lesion: a single injection of a peptide per animal (1 mg/100 g animal weight): • 3. the 2nd day after the lesion: a single injection of a peptide per animal (1 mg/100 g animal weight); • 4. the 3rd day after the lesion: animals are sacrificed.
(§2) Control groups were a group (4 rats) injected with the vehicle (water) and a group (4 rats), injected with human recombinant EPO (hrEPO) in dose 50 μg/100 g rat according to the above scheme.

rat brain after TBI [2] = assay: Oxidative DNA damage after traumatic brain injury (8-oxoguanine immunostaining); assay type: in vivo; settings: s.c., 3 days after lesion
Procedure: as §1, §2
(§3) A traumatic brain injury (TBI) was induced by applying dry ice (−78 C) to the extracranial surface of the skull for 60 sec, which induces a focal injury in the right fronto-parietal cortex. Three days after the lesion (3 dpl) rats were deeply anesthetized with Brietal (10 mg/100 gr) and fixed by transcardial perfusion with 0.9% NaCl and 0.3% heparin, followed by Zamboni's fixative. The brains were removed, dehydrated according to the standard protocol, embedded in paraffin, and cut in 6-μm-thick frontal sections for further evaluation by immunohistochemistry and TUNEL.
(§4) For immunohistochemistry the sections of the brains were incubated overnight with polyclonal rabbit anti-cow GFAP, GAP-43, 8-oxoguanine, or PSA-NCAM antibodies 1:250 (Dakopatts). The primary antibodies were detected in the sections with biotinylated secondary antibodies followed by incubation with streptavidin-biotin-peroxidase (30 min). Afterwards, the sections were incubated with biotinylated tyramide and streptavidin-peroxidase complex (NEN, Life Science Products, USA, code NEL700A) prepared following the manufacturer recommendations, and visualized with 0.015% H2O2 in DAB/TBS for 10 min.

[3] = target: T1, recombinant erythropoietin receptor (EPOR-Fc) (Homo sapiens, UniProt P19235); assay: SPR binding of soluble EPOR-Fc to immobilized Epo 3 peptide
T1 construct: the chip was incubated with soluble recombinant EPOR-Fc under standard conditions
T1 sequence (P19235 25-250 limits assumed): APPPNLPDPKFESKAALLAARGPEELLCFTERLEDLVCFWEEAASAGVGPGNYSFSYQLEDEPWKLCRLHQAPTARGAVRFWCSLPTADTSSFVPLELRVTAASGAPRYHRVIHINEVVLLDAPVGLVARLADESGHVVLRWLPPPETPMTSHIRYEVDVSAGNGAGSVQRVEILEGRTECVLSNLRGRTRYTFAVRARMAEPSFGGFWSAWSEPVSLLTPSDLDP
Procedure: The binding of Epo 3 to EPOR-Fc was studied by SPR analysis. The Epo 3 peptide was immobilized on a chip and the chip was incubated with soluble recombinant EPOR-Fc under standard conditions. Three independent experiments were performed. […] The results of binding are shown on FIG. 16.

rat brain after TBI [4] = assay: Programmed cell death after traumatic brain injury (TUNEL); assay type: in vivo; settings: s.c., 3 days after lesion
Procedure: as §1, §2
as §3, with “TUNEL. […]” for “TUNEL.”

[5] = system: human erythroleukemia cells TF-1; assay: Proliferation of TF-1 cells (BrdU incorporation ELISA); assay type: cell-based; settings: for stimulation of haemopoietic cell proliferation (general conclusion): no concentration stated
Procedure: Evaluation of the effect of four EPO-derived peptides on cell proliferation was performed using a TF-1 cell line. The TF-1 cell line was established from sample from patient with severe pancytopenia (human erythroleukemia). The growth of these cells is dependent of the presence of the granulocyte-macrophage colony-stimulating factor (GM-SCF). The TF-1 cells were grown in Dulbecco's Modified Eagle Medium (DMEM) supplemented with 10% (v/v) heat inactivated foetal calf serum (FCS), 2 mM GlutaMAX, penicillin (100 U/ml) and streptomycin (100 μg/ml), 10 mM HEPES, 1 mM sodium pyruvate, 1% fungizone. The growth medium was supplemented with 2 ng/ml GM-CSF. Cell proliferation was determined using a Biotrak ELISA system, version 2 (Amersham Biosciences, UK). The procedure is based on measurement of the levels of 5-bromo-2′-deoxyuridine (BrdU) incorporation during DNA synthesis in proliferating cells. Briefly, passaged cells were washed once with starving medium (culturing medium without GM-CSF) then plated in 96-well Nuclon culture microplates (Nuno, Denmark) at a density of 5000 cells/well and grown in starving medium containing 0.008, 0.04, 0.2, 1.0, 5.0, 25 and 50 μg/ml of the tested compounds. As a positive control the human recombinant erythropoietin (EPO) (Calbiochem, Denmark) was used in a concentration of 2.0 ng/ml. TF-1 cells were allowed to grow in the presence of peptides for 24 h and than to all wells (except negative controls) BrdU was added to a final concentration of 10 μM and cultures were further incubated for 24 h, fixed and processed according to the procedure recommended by manufacturer, […]

[6] = system: Cerebellar granule neuron (CGN) cultures; assay: Stimulation of neurite outgrowth from cerebellar granule neurons in vitro; assay type: cell-based, rat; settings: 24 h treatment of CGN cultures
Excerpt: Cerebellar granule neuron (CGN) cultures were obtained from 3-4-day-old Wistar rats (Charles River, Sulzfeld, Germany, or Moellegaard, Denmark) as previously described by Schousboe et al. (1989). Briefly, the cerebella were dissected, cleared of meninges and blood vessels, chopped, and trypsinized. The neurons were washed in the presence of DNAse 1 and soybean trypsin inhibitor (Sigma), and cellular debris was pelleted by centrifugation; the cells resuspended and then plated on poly-L-lysine (PLL; Sigma)-coated or uncoated microtiter plates in Neurobasal medium supplemented with 4% (w/v) bovine serum albumin (BSA), 2% (v/v) B27, 1% (v/v) glutamax, 100 U/ml penicillin, 100 gi/ml streptomycin, 4.5 g D-glucose/L (Sigma) 0.25% (v/v) sodium pyruvate, and 2% (v/v) 1 M HEPES (Gibco BRL).

Primary cultures of CGN = assay: Survival of CGN induced to undergo apoptosis (low KCl) in vitro; assay type: cell-based, rat; settings: apoptosis induced by reducing KCl to 5 mM, two days
Procedure: Primary cultures of CGN were plated at a density of 100 000 cells/cm^2 on poly-L-lysine coated 8-well permanox slides in Neurobasal-A medium (Gibco BRL) supplemented with 2% (v/v) B27, 0.5% (v/v) glutamax, 100 units/mL penicillin, 100 μg/mL streptomycin and KCl, making the final concentration of KCl in the medium 40 mm, Twenty-four hours after plating, Ara-C (Sigma-Aldrich) was added to a final concentration of 10 μm to avoid proliferation of glial cells, after which the neurons were allowed to differentiate for a further 6 days at 37° C. Apoptotic cell death was induced by washing twice and changing the medium to Basal Medium Eagle (BME; Gibco BRL) supplemented with 1% (v/v) glutamine, 100 U/mL, penicillin and 100 μg/mL streptomycin, 3.5 g d-glucose/L and 1% (v/v) sodium pyruvate (Gibco BRL) together with various concentrations of peptide. Thereby the concentration of potassium in the cultures was reduced to 5 mm KCl (D'Mello et al. 1993). Two days after induction of apoptosis, the cells were fixed with 4% (v/v) formaldehyde and stained with Hoechst 33258 as described for the survival assay employing hippocampal neurons.

rat brain after TBI [7] = assay: Neuroplasticity and neurite outgrowth in vivo after TBI (PSA-NCAM and GAP-43 immunostaining); settings: for level of PSA-NCAM staining: area adjusted to the lesion and subventricular zone; for neurite outgrowth in vivo (GAP-43 immunostaining): cortical lesion area, choroid plexus, hippocampus, hypothalamus
Procedure: as §1, §2, §3, §4

rat brain after TBI [8] = assay: Astrocytosis after traumatic brain injury (GFAP IHC); assay type: in vivo; settings: s.c., 3 days after lesion
Procedure: as §1, §2
A traumatic brain injury (TBI) was induced by applying dry ice (−78 C) to the extracranial surface of the skull for 60 sec, which induces a focal injury in the right fronto-parietal cortex. […]
For immunohistochemistry the sections of the brains were incubated overnight with polyclonal rabbit anti-cow GFAP, GAP-43, 8-oxoguanine, or PSA-NCAM antibodies 1:250 (Dakopatts). The primary antibodies were detected in the sections with biotinylated secondary antibodies followed by incubation with streptavidin-biotin-peroxidase (30 min). […]

[9] = Epo 3 ionic bonded with the chip, soluble EPOR-Fc, three experiments

| Molecule | effect on the hematocrit vs control [1] | 8-oxoguanine positive cells (oxidative DNA damage) (rat brain after TBI [2]) | TUNEL-positive apoptotic cells around the necrotic cavity (rat brain after TBI [4]) | proliferation of TF-1 cells ([5]; concentration of 50 μg/ml) | stimulation of haemopoietic cell proliferation (general conclusion) [5] | neurite outgrowth from CGN (neuritogenic activity) [6] | protection of CGN induced to undergo apoptosis (neuronal survival) (Primary cultures of CGN) | level of PSA-NCAM staining (rat brain after TBI [7]) | neurite outgrowth in vivo (GAP-43 immunostaining) (rat brain after TBI [7]) | astrocytosis (reactive astrogliosis) by GFAP IHC (rat brain after TBI [8]) | also measured |
| --- | --- | --- | --- | --- | --- | --- | --- | --- | --- | --- | --- |
| CC(C)C[C@H](NC(=O)CNC(=O)[C@H](CO)NC(=O)[C@@H](NC(=O)[C@H](C)NC(=O)[C@H](CCCCN)NC(=O)[C@H](CC(=O)O)NC(=O)[C@@H](NC(=O)[C@H](Cc1c[nH]cn1)NC(=O)[C@H](CC(C)C)NC(=O)[C@@H](N)CCC(N)=O)C(C)C)C(C)C)C(=O)N[C@@H](CCCNC(=N)N)C(=O)N[C@@H](CO)C(=O)N[C@@H](CC(C)C)C(=O)N[C@H](C(=O)N[C@H](C(=O)N[C@@H](CC(C)C)C(=O)N[C@@H](CC(C)C)C(=O)N[C@@H](CCCNC(=N)N)C(=O)N[C@@H](C)C(=O)O)[C@@H](C)O)[C@@H](C)O [Epo3] (H-QLHVDKAVSGLRSLTTLLRA-OH) | no statistically significant effect | lowest number of the 8-oxoguanine positive cells | lowest level of apoptosis | stimulate proliferation of TF-1 cells | most potent among them | capable of stimulating neurite outgrowth | strongest neuroprotective effect | significantly increases the level of PSA-NCAM staining | stimulates neurite outgrowth | – | effect on the hematocrit vs control ([1]; listed as Epo 3): no significant effect; binding to EPOR ([3]; Epo 3 covalently bonded to the chip): does not bind to EPOR; association rate ka [3, 9]: 2.1*10^4+−1.4*10^4; dissociation rate kd [3, 9]: 4.33*10^−5+−1.62*10^−5; kon ([3]; Epo 3 ionic bonded with the chip, soluble EPOR-Fc, three experiments, read-out: association rate ka): 21000 M⁻¹ s⁻¹; koff ([3]; Epo 3 ionic bonded with the chip, soluble EPOR-Fc, three experiments, read-out: dissociation rate kd): 4.33e-05 s⁻¹; Kd ([3]; Epo 3 ionic bonded with the chip, soluble EPOR-Fc, read-out: overall binding affinity of EPOR to Epo3): 4.48 nM; neurite outgrowth from CGN (neuritogenic activity) ([6]; listed as SEQ ID NO: 3): strongly induce neurite outgrowth |
| DSRVLERYLLEAKE (Derived from human erythropoietin, Swiss Prot P01588) [Epo1, peptide fragment derived from human erythropoietin] | – | – | – | stimulates proliferation of TF-1 cells | – | – | – | – | – | – | proliferation of TF-1 cells ([5]; concentration of 0.2 μg/ml): probably had a stimulatory effect; neurite outgrowth from CGN (neuritogenic activity) ([6]; listed as SEQ ID NO: 1): do net have any neuritogenic activity |
| NENITVPDTKVNFYAWKR (Derived from human erythropoietin, Swiss Prot P01588) [Epo2, peptide fragment derived from human erythropoietin] | no statistically significant effect | lowest number of the 8-oxoguanine positive cells | – | – | – | capable of stimulating neurite outgrowth | strongest neuroprotective effect | – | stimulates neurite outgrowth | mast pronounced increase in reactive astrogliosis | effect on the hematocrit vs control ([1]; listed as Epo 2): no significant effect; proliferation of TF-1 cells ([5]; concentrations of 25 and 50 μg/ml): stimulates proliferation of TF-1 cells; neurite outgrowth from CGN (neuritogenic activity) ([6]; listed as SEQ ID NO: 2): strongly induce neurite outgrowth |
| RVYSNFLRGKLKLYTGEA (Derived from human erythropoietin, Swiss Prot P01588) [Epo4, peptide fragment derived from human erythropoietin] | no statistically significant effect | significantly reduced oxidative DNA damage | lowest level of apoptosis | stimulate proliferation of TF-1 cells | most potent among them | capable of stimulating neurite outgrowth | strongest neuroprotective effect | significantly increases the level of PSA-NCAM staining | – | least effect | neurite outgrowth from CGN (neuritogenic activity) ([6]; listed as SEQ ID NO: 4): strongly induce neurite outgrowth |
